Experimental findings from PubChem BioAssay (NCI) are described below.

Among the test systems are IGROV1 ovarian; UO-31 renal; OVCAR-8 ovarian; SNB-19 CNS; A549 NSCLC; SK-MEL-28 melanoma; ACHN renal; HT29 colon; COLO 205 colon; SR leukemia; BT-549 breast; HOP-92 NSCLC; PC-3 prostate; T-47D breast; OVCAR-3 ovarian; HS 578T breast; NCI/ADR-RES ovarian; SK-MEL-5 melanoma; KM12 colon; SF-268 CNS.
Common to all, as to experiment: NCI anticancer screen, dose series, 48 h

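Dose response: 5 concentrations. Exposure: 48 h. Format: 96-well plates. Endpoint: linear interpolation; highest concentration if not reached. Definition used: TGI = concentration required for complete inhibition of growth.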

On to `Cc1ccc(S(=O)(=O)OC2C3OC(C)(C)OC3OC2C(c2cc(O)c3c(c2O)C(=O)c2ccccc2C3=O)c2cc(O)c3c(c2O)C(=O)c2ccccc2C3=O)cc1` (stereo not given), for which the TGI with IGROV1 ovarian, in the assay with UO-31 renal, in the assay with OVCAR-8 ovarian, in the assay with SNB-19 CNS, in the assay with A549 NSCLC and with SK-MEL-28 melanoma was above 10 µM in each case. For the same compound, the TGI in the assay on ACHN renal, with HT29 colon, with COLO 205 colon, in the assay with SR leukemia, in the assay on BT-549 breast and in the assay with HOP-92 NSCLC was above 10 µM throughout. In addition, the TGI with PC-3 prostate, in the assay on T-47D breast, in the assay with OVCAR-3 ovarian, in the assay with HS 578T breast, in the assay on NCI/ADR-RES ovarian and in the assay with SK-MEL-5 melanoma was above 10 µM throughout. For the same compound, the TGI with KM12 colon and with SF-268 CNS was above 10 µM throughout.
Take `O=C(CCc1ccc(O)cc1)NCCc1ccc(O)cc1`: the TGI in the assay on IGROV1 ovarian, in the assay on UO-31 renal, in the assay on OVCAR-8 ovarian, in the assay on SNB-19 CNS, in the assay with A549 NSCLC and in the assay on SK-MEL-28 melanoma was above 100 µM each time. The TGI with ACHN renal, with HT29 colon, in the assay on COLO 205 colon, with SR leukemia, in the assay on BT-549 breast and in the assay with HOP-92 NSCLC was above 100 µM in each case. For the same compound, the TGI with PC-3 prostate, in the assay with T-47D breast, in the assay with OVCAR-3 ovarian, with HS 578T breast, in the assay on NCI/ADR-RES ovarian and in the assay with SK-MEL-5 melanoma was above 100 µM each time. For the same compound, the TGI in the assay with KM12 colon and with SF-268 CNS was above 100 µM each time.
`COC12C=CC(CC1)C(C)(C)C2=O` (stereo not given): the TGI with IGROV1 ovarian, with UO-31 renal, in the assay on OVCAR-8 ovarian, in the assay with SNB-19 CNS, in the assay on A549 NSCLC and in the assay on SK-MEL-28 melanoma was above 100 µM throughout. In addition, the TGI in the assay with ACHN renal, in the assay on HT29 colon, in the assay on COLO 205 colon, in the assay with SR leukemia, with BT-549 breast and with HOP-92 NSCLC was above 100 µM each time. For the same compound, the TGI in the assay with PC-3 prostate, with T-47D breast, with OVCAR-3 ovarian, with HS 578T breast, in the assay with NCI/ADR-RES ovarian and in the assay on SK-MEL-5 melanoma was above 100 µM throughout. For the same compound, the TGI in the assay with KM12 colon and with SF-268 CNS was above 100 µM each time.
Consider `Nc1nc(Cl)cc(NCC2(CO)CC(OCc3ccccc3)C2)n1` (stereo not given), for which the TGI in the assay with IGROV1 ovarian, in the assay with UO-31 renal, in the assay on OVCAR-8 ovarian, with SNB-19 CNS, with A549 NSCLC and in the assay with SK-MEL-28 melanoma was above 100 µM in each case. In addition, the TGI with ACHN renal, with HT29 colon, in the assay with COLO 205 colon, in the assay with SR leukemia, in the assay on BT-549 breast and with HOP-92 NSCLC was above 100 µM each time. Also, the TGI with PC-3 prostate is above 100 µM; in the assay on T-47D breast, 41.9 µM; with OVCAR-3 ovarian it was above 100 µM; in the assay on HS 578T breast, above 100 µM; in the assay with NCI/ADR-RES ovarian, above 100 µM; with SK-MEL-5 melanoma it was above 100 µM. Besides, the values for the TGI in the assay with KM12 colon and in the assay with SF-268 CNS were above 100 µM and 74.8 µM, respectively.
For the compound `C=C(C)[C@@H](C(=O)OC)N1C(=O)c2ccccc2C1=O`, the TGI in the assay with IGROV1 ovarian, in the assay with UO-31 renal, in the assay on OVCAR-8 ovarian, with SNB-19 CNS, in the assay on A549 NSCLC and with SK-MEL-28 melanoma was above 100 µM each time. Besides, the TGI in the assay on ACHN renal, in the assay on HT29 colon, in the assay with COLO 205 colon, in the assay on SR leukemia, in the assay on BT-549 breast and in the assay with HOP-92 NSCLC was above 100 µM in each case. Further, the TGI with PC-3 prostate, in the assay on T-47D breast, in the assay on OVCAR-3 ovarian, with HS 578T breast, in the assay on NCI/ADR-RES ovarian and with SK-MEL-5 melanoma was above 100 µM each time. Also, the TGI with KM12 colon and in the assay with SF-268 CNS was above 100 µM in each case.
Take `Cc1cccc2c(N)c3cccc(C(=O)NCCCNCCN)c3nc12`: the TGI was found to be 28.9 µM with IGROV1 ovarian; 46.8 µM in the assay on UO-31 renal; 23.6 µM with OVCAR-8 ovarian; 15 µM in the assay with SNB-19 CNS; 15 µM in the assay on A549 NSCLC; 29.4 µM in the assay on SK-MEL-28 melanoma. The TGI in the assay with ACHN renal is 32.8 µM; with HT29 colon, 16.3 µM; in the assay with COLO 205 colon it was 20.1 µM; in the assay on SR leukemia, above 82.9 µM; in the assay on BT-549 breast, 28 µM; with HOP-92 NSCLC, 42.7 µM. Besides, the TGI in the assay on PC-3 prostate was 35.3 µM; with T-47D breast, 24.8 µM; in the assay with OVCAR-3 ovarian, 63.2 µM; in the assay on HS 578T breast it was 3.71 µM; with NCI/ADR-RES ovarian, 77.9 µM; in the assay with SK-MEL-5 melanoma, 22.8 µM. Moreover, the values for the TGI with KM12 colon and in the assay with SF-268 CNS were 19.5 µM and 3.19 µM, respectively.
